Results: BindingDB's records for patent US10112941 (Bristol-Myers Squibb, 2018)

Target: Bromodomain-containing protein 4 (Homo sapiens, UniProt O60885)
Assay: TR-FRET Assay
Experimental: All assay components were dissolved in buffer composition 20 mM Hepes pH 7.5, 150 mM NaCl, 5 mM DTT, 0.005% Tween 20, and 100 ug/ml BSA for BRD4 (1-477 and 44-460). The final concentrations of the bromodomain proteins are 1.6 nM BRD4(44-168), 1 nM BRD4(333-460), and 1 nM BRD4(1-477 or 44-460), and the fluorescent probe molecule is 100 nM, 50 nM, and 7.5 nM respectively. All proteins were biotinylated. A streptavidin labeled with terbium cryptate (Cisbio SA-Tb) was used as detection, and pre-mixed with the bromodomain protein at a final concentration of 0.2 nM. In some instances for BRD4 (44-460), anti-His terbium cryptate was used as a detection. 7.5 nl of dose-responsed test compound or dmso vehicle (0.0375%) was pre-spotted in a black Corning 384 well plate and 10 ul each of bromodomain/detection reagent and fluorescent small molecule solution were added to the plate, and the reaction incubated for 60 min at room temperature. Plates were then read on EnVision plate reader, (λex=340 nm, acceptor λEm=520 nm, and donor λEm=615 nm, LANCE D400 mirror). Time resolved fluorescence intensity measurements were made at both emissions, and the ratio of acceptor/donor was calculated and used for data analysis.

## Cc1nnn(C)c1-c1cnc2c3ccc(C(C)(C)O)cc3n([C@@H](c3ccccc3F)C3CCOCC3)c2c1 [US10112941, Example 65]
  IC50: < 5 nM
